From PubChem BioAssay AID2060887 (Molecular Pharmacology Branch, DTP, NCI, 2025)
Values joined by “and” are separate entries in the source; they are usually repeats but may differ in a detail not shown here. Equal values may be shown once.

Test system: 782815-120-R-J1-PDC complex spheroid viability
Assay: Anticancer human tumor 782815-120-R-J1-PDC patient-derived colon adenocarcinoma cell line growth inhibition [RAS]
Conditions: for viability, T/C: stronger effect = lower value
Procedure, shortened: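 Tumour cells grown as complex spheroids with HUVEC endothelial cells and mesenchymal stem cells, treated with RAS pathway inhibitor combinations. Each agent spans half-log steps from near clinical Cmax, or 10 microM where Cmax is unknown.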
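Note: spheroids exposed to compounds for 7 days before reading.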
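Throughout, for viability, T/C: 100% = DMSO vehicle control viability.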

## CCN1CCN(Cc2ccc(Nc3ncc(F)c(-c4cc(F)c5nc(C)n(C(C)C)c5c4)n3)nc2)CC1 + CCn1c(-c2cccnc2C(C)OC)c2c3cc(ccc31)N1CCOC(CC(NC(=O)C(C(C)C)N(C)C(=O)C3(F)CCN(C(=O)C#CC(C)(C)N(C)C)CC3)C(=O)N3CCCC(N3)C(=O)OCC(C)(C)C2)C1
Curve of first compound, second compound 0.000949 µM
  IC50: > 1 µM
Curve of first compound, second compound 0.003 µM
  IC50: > 1 µM
Curve of first compound, second compound 0.00949 µM
  IC50: > 1 µM
Curve of first compound, second compound 0.03 µM
  IC50: > 1 µM
Curve of first compound, second compound 0.0949 µM
  IC50: > 1 µM
Curve of first compound, second compound 0.3 µM
  IC50: > 1 µM
Second compound 0.000949 µM, first compound 0.00316 µM
  viability, T/C: 104%
Second compound 0.000949 µM, first compound 0.01 µM
  viability, T/C: 99.3%
Second compound 0.000949 µM, first compound 0.0316 µM
  viability, T/C: 106%
Second compound 0.000949 µM, first compound 0.1 µM
  viability, T/C: 92%
Second compound 0.000949 µM, first compound 0.316 µM
  viability, T/C: 124%
Second compound 0.000949 µM, first compound 1 µM
  viability, T/C: 125%
Second compound 0.003 µM, first compound 0.00316 µM
  viability, T/C: 95%
Second compound 0.003 µM, first compound 0.01 µM
  viability, T/C: 97%
Second compound 0.003 µM, first compound 0.0316 µM
  viability, T/C: 95.7%
Second compound 0.003 µM, first compound 0.1 µM
  viability, T/C: 98%
Second compound 0.003 µM, first compound 0.316 µM
  viability, T/C: 118%
Second compound 0.003 µM, first compound 1 µM
  viability, T/C: 121%
Second compound 0.00949 µM, first compound 0.00316 µM
  viability, T/C: 96.3%
Second compound 0.00949 µM, first compound 0.01 µM
  viability, T/C: 99.6%
Second compound 0.00949 µM, first compound 0.0316 µM
  viability, T/C: 102%
Second compound 0.00949 µM, first compound 0.1 µM
  viability, T/C: 103%
Second compound 0.00949 µM, first compound 0.316 µM
  viability, T/C: 118%
Second compound 0.00949 µM, first compound 1 µM
  viability, T/C: 127%
Second compound 0.03 µM, first compound 0.00316 µM
  viability, T/C: 99.8%
Second compound 0.03 µM, first compound 0.01 µM
  viability, T/C: 109%
Second compound 0.03 µM, first compound 0.0316 µM
  viability, T/C: 101%
Second compound 0.03 µM, first compound 0.1 µM
  viability, T/C: 102%
Second compound 0.03 µM, first compound 0.316 µM
  viability, T/C: 117%
Second compound 0.03 µM, first compound 1 µM
  viability, T/C: 127%
Second compound 0.0949 µM, first compound 0.00316 µM
  viability, T/C: 92.3%
Second compound 0.0949 µM, first compound 0.01 µM
  viability, T/C: 95.5%
Second compound 0.0949 µM, first compound 0.0316 µM
  viability, T/C: 97%
Second compound 0.0949 µM, first compound 0.1 µM
  viability, T/C: 102%
Second compound 0.0949 µM, first compound 0.316 µM
  viability, T/C: 123%
Second compound 0.0949 µM, first compound 1 µM
  viability, T/C: 134%
Second compound 0.3 µM, first compound 0.00316 µM
  viability, T/C: 92.8%
Second compound 0.3 µM, first compound 0.01 µM
  viability, T/C: 91.6%
Second compound 0.3 µM, first compound 0.0316 µM
  viability, T/C: 104%
Second compound 0.3 µM, first compound 0.1 µM
  viability, T/C: 110%
Second compound 0.3 µM, first compound 0.316 µM
  viability, T/C: 122%
Second compound 0.3 µM, first compound 1 µM
  viability, T/C: 122%

## CC(C)NCC(C(=O)N1CCN(c2ncnc3c2C(C)CC3O)CC1)c1ccc(Cl)cc1 (centres undefined)
Compound 0.0316 µM
  viability, T/C: 106% [middle of 4 runs]
Compound 0.1 µM
  viability, T/C: 98.9% [middle of 4 runs]
Compound 0.316 µM
  viability, T/C: 104% (2×) and 101% and 91.7%
Compound 1 µM
  viability, T/C: 96% [middle of 4 runs]
Compound 3.16 µM
  viability, T/C: 101% [middle of 4 runs]
Compound 10 µM
  viability, T/C: 104% [middle of 4 runs]
Curve of compound
  IC50: > 10 µM
